The source made the active and inactive calls. The calls are words filed in the database; no cut-off is given here.
Assays:
[1] = Metabolic stability in dog liver microsome assessed as half life at 1 uM measured upto 60 mins in presence of NADPH by LC-MS/MS analysis; type: ADME, Canis lupus familiaris; conditions: liver microsomes
[2] = Agonist activity at monkey GHSR expressed in CHO cells incubated for 60 min by FLIPR assay; type: cell-based; conditions: Macaca mulatta, 1 h
[3] = biological target: Growth hormone secretagogue receptor type 1 (Rattus norvegicus) (UniProt O08725); assay: Agonist activity at rat GHSR expressed in CHO cells at maximum concentration incubated for 60 min by FLIPR assay relative to control; type: functional, cell-based; conditions: filed as agonist
Rattus norvegicus [4] = assay: Induction of growth hormone level in Juvenile Sprague-Dawley rat blood at 0.1 mg/kg, po administered as single dose measured after 10 mins by ELISA method (reference value: 23.2+/-5.6 ng/mL); type: functional
Rattus norvegicus [5] = assay: Induction of growth hormone level in Juvenile Sprague-Dawley rat blood at 0.1 mg/kg, po administered as single dose measured after 2 hrs by ELISA method (reference value: 26.5+/-7.3 ng/mL); type: functional
Rattus norvegicus [6] = assay: Induction of growth hormone level in Juvenile Sprague-Dawley rat blood by measuring AUC(0 to 40 mins) at 0.1 mg/kg, po administered as single dose by ELISA method (reference value: 20.2+/-4.3 ng/mL); type: functional, organism-based; conditions: time 4.0 hrs
Rattus norvegicus [7] = assay: Induction of growth hormone level in Juvenile Sprague-Dawley rat blood at 0.5 mg/kg, po administered as single dose measured after 20 mins by ELISA method (reference value: 29.1+/-8.6 ng/mL); type: functional
Rattus norvegicus [8] = assay: Induction of growth hormone level in adult Sprague-Dawley rat blood at 0.1 mg/kg, po administered as single dose measured after 20 mins by ELISA method (reference value: 4.9+/-1.1 ng/mL); type: functional
Rattus norvegicus [9] = assay: Induction of growth hormone level in adult Sprague-Dawley rat blood at 0.2 mg/kg, po administered as single dose measured after 10 mins by ELISA method (reference value: 13.7+/-7.2 ng/mL); type: functional
Rattus norvegicus [10] = assay: Induction of growth hormone level in adult Sprague-Dawley rat blood by measuring AUC(0 to 40 mins) at 0.2 mg/kg, po administered as single dose by ELISA method (reference value: 7.0+/-1.7 ng/mL); type: functional, organism-based
Rattus norvegicus [11] = assay: Induction of growth hormone level in adult Sprague-Dawley rat blood at 0.5 mg/kg, po administered as single dose measured after 10 mins by ELISA method (reference value: 13.7+/-7.2 ng/mL); type: functional
Rattus norvegicus [12] = assay: Induction of growth hormone level in 6 week-old male Sprague-Dawley rat assessed as increase in body length at 2.5 mg/kg, po measured after 10 days; type: functional, organism-based; conditions: time 10.0 day
Rattus norvegicus [13] = assay: Induction of growth hormone level in 6 week-old female Sprague-Dawley rat assessed as increase in body length at 2.5 mg/kg, po measured after 10 days; type: functional, organism-based; conditions: time 10.0 day
Rattus norvegicus [14] = assay: Induction of growth hormone level in 4 week-old female Sprague-Dawley rat assessed as increase in body weight at 2.5 mg/kg, po measured after 10 days; type: functional, organism-based; conditions: time 10.0 day
[15] = Half life in male monkey at 0.5 mg/kg, iv administered as single dose measured after 4 hrs; type: ADME, organism-based, Macaca mulatta; conditions: rhesus monkey, in vivo
[16] = Cmax in male monkey at 2 mg/kg, po administered as single dose measured after 4 hrs; type: ADME, organism-based, Macaca mulatta; conditions: rhesus monkey, in vivo
[17] = Metabolic stability in rat liver microsome assessed as half life at 1 uM measured upto 60 mins in presence of NADPH by LC-MS/MS analysis; type: ADME; conditions: liver microsomes
[18] = Metabolic stability in rat liver microsome assessed as intrinsic clearance at 1 uM measured upto 60 mins in presence of NADPH by LC-MS/MS analysis; type: ADME; conditions: liver microsomes, read-out: CLH
[19] = Metabolic stability in mouse liver microsome assessed as hepatic clearance at 1 uM measured upto 60 mins in presence of NADPH by LC-MS/MS analysis; type: ADME; conditions: liver microsomes, read-out: CLH
Cytochrome P450 3A4 = Cytochrome P450 3A4 (Homo sapiens, UniProt P08684); assay: Inhibition of CYP3A4 in human liver microsome using midazolam as substrate incubated for 5 min in presence of NADPH by UPLC-MS/MS analysis; type: ADME, microsomes
[20] = biological target: Voltage-gated inwardly rectifying potassium channel KCNH2 (Homo sapiens, UniProt Q12809); assay: Inhibition of human ERG expressed in HEK293 cells by patch clamp assay; type: toxicity, cell-based
[21] = Toxicity in Sprague-Dawley rat liver assessed as change in central veins at 10 to 100 mg/kg, po administered once daily for 14 days; type: organism-based; conditions: in vivo, 336 h, dose 10-100 mg/kg, time 14 day

Sequence of Voltage-gated inwardly rectifying potassium channel KCNH2 (Q12809 whole entry): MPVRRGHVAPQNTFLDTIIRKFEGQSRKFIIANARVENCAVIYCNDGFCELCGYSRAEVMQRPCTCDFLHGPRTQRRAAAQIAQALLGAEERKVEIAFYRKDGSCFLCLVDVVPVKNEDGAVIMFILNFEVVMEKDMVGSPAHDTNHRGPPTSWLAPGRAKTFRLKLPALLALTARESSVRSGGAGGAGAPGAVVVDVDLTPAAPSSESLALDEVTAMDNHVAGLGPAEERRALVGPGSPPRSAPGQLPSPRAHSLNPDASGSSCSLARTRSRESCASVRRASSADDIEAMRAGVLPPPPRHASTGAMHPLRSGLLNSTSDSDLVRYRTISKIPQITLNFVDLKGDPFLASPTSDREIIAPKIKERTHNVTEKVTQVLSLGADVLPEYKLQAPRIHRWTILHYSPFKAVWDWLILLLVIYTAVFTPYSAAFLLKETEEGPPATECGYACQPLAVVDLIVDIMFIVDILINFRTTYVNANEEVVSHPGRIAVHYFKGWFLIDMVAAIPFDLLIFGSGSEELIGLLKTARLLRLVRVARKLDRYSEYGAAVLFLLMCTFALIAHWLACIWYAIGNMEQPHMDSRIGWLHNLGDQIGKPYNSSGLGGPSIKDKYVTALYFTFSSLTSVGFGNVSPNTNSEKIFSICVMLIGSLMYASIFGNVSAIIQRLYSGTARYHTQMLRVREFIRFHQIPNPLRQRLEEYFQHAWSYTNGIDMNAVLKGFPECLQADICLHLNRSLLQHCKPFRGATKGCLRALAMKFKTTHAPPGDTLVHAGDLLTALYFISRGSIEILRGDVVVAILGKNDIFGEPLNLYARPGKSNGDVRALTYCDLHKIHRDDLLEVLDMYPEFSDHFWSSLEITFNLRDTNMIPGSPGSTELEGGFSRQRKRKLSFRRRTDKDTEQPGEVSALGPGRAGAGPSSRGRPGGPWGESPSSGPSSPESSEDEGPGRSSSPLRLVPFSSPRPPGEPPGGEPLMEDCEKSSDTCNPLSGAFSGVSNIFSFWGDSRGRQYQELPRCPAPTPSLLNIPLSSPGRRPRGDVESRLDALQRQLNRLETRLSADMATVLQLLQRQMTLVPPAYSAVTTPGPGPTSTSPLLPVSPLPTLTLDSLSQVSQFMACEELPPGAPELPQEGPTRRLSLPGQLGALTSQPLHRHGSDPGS
Sequence of Growth hormone secretagogue receptor type 1 (Rattus norvegicus) (O08725 whole entry): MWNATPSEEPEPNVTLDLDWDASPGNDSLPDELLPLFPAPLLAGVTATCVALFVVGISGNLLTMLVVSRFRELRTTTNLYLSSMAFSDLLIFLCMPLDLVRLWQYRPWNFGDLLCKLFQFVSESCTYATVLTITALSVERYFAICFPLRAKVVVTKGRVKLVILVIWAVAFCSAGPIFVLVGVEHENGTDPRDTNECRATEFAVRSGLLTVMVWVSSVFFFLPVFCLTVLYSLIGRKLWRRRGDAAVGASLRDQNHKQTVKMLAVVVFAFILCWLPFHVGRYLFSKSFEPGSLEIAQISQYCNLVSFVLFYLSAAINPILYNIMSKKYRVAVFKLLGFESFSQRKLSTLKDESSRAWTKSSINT
Sequence of Cytochrome P450 3A4 (P08684 whole entry): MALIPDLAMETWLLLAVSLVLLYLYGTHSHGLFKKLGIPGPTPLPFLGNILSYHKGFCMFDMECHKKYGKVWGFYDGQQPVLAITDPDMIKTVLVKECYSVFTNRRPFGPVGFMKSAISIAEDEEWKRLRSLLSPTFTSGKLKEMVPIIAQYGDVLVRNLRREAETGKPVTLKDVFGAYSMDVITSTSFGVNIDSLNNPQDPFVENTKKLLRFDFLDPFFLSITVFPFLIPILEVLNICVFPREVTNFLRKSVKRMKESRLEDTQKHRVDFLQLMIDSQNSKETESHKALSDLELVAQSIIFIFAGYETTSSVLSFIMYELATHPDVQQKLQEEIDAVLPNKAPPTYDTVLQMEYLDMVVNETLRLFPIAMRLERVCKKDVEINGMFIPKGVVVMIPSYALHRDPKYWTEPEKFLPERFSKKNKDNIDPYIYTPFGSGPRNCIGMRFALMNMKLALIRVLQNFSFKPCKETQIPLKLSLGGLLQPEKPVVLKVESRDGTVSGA

half-life at 1 µM [1]: 10.3 min | EC50 [2]: 0.046 nM | Activity [3]: 96.7% | half-life [15]: 46.8 min | Cmax [16]: 43.4 ng/mL | half-life at 1 µM [17]: 9.9 min | microsomal CLint at 1 µM [18]: 140 µL/min/mg | CLint scaled at 1 µM [19]: 1370 mL/min/kg | IC50 (Cytochrome P450 3A4): > 30 µM
Structure (SMILES): CC(C)(N)C(=O)N[C@H](COCc1ccccc1)C(=O)N1CCC2=NN(C3CC3)C(=O)[C@]2(Cc2ccccc2)C1
Activity (Rattus norvegicus [4]): 168.5 ng/mL | Activity (Rattus norvegicus [5]): 36.7 ng/mL | AUC (Rattus norvegicus [6]): 109 ng·h/mL | Activity (Rattus norvegicus [7]): 223.2 ng/mL | Activity (Rattus norvegicus [8]): 74.5 ng/mL | Activity (Rattus norvegicus [9]): 228.6 ng/mL | AUC (Rattus norvegicus [10]): 62.6 ng·h/mL | Activity (Rattus norvegicus [11]): 238.6 ng/mL | Activity (Rattus norvegicus [12]): Active | Activity (Rattus norvegicus [13]): Active | Activity (Rattus norvegicus [14]): Active | IC50 [20]: > 30 µM | Activity [21]: Non-toxic

— ChEMBL document CHEMBL6103654, “Design, Biological Characterization, and Discovery of Capromorelin Derivatives as Oral Growth Hormone Secretagogue Receptor Type 1a Agonist for the Treatment of Growth Hormone Deficiency” (J Med Chem, 2025)
